pKi: −log10 of the molar value. Structures can show the parent of a compound that is named as a salt.
Each molecule was assayed against T1, human cloned 5-HT6 receptors (Homo sapiens, UniProt P50406). Details: not given.
T1 construct: expressed in transfected cells; host or cells: HeLa cells
Assay type: binding
Method: This operation is repeated.
The reaction is allowed to proceed in the dark for 120 min at room temperature, at which time, the bound ligand-receptor complex is filtered off on a 96 well unifilter with a Packard Filtermate® 196 Harvester. The bound complex caught on the filter disk is allowed to air dry and the radioactivity is measured in a Packard TopCount® equipped with six photomultiplier detectors, after the addition of 40.0 μl Microscint®-20 scintillant to each shallow well. The unifilter plate is heat-sealed and counted in a PackardTopCount® with a tritium efficiency of 31.0%.
Specific binding to the 5-HT6 receptor is defined as the total radioactivity bound less the amount bound in the presence of 10.0 μM unlabeled methiothepin. Binding in the presence of varying concentrations of test compound is expressed as a percentage of specific binding in the absence of test compound. The results are plotted as logit % bound versus log concentration of test compound. Nonlinear regression analysis of data points with a computer assisted program Prism® yields both the IC50 and the Ki values of test compounds with 95% confidence limits.
The amount of displacement by the test compound is given in percent (%) inhibition and is derived from the following equation: [formula] where B0 is the amount of CPM bound in the presence of the testing agent. NSB represents the CPM bound in the presence of a saturating concentration of a displacer and TB represents the total amount of CPM bound at zero (0) concentration of test compound.
Alternatively, a linear regression line of decline of data points is plotted, from which the IC50 value can be read off and the Ki value determined by solving the following equation: [formula] where L is the concentration of the radioactive ligand used and KD is the dissociation constant of the ligand for the receptor, both expressed in nM.

T1 sequence (P50406 whole entry): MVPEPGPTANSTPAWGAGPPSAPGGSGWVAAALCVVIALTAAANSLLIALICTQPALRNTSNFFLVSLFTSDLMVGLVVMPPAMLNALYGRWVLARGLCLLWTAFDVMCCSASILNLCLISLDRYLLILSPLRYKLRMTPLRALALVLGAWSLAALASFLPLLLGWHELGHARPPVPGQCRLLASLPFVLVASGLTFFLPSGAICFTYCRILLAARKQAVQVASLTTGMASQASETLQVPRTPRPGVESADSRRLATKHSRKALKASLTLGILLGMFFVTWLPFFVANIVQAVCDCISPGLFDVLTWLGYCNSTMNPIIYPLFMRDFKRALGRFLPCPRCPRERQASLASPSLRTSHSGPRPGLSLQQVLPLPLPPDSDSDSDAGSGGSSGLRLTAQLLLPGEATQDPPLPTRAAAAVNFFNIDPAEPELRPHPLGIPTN

Molecule | inhibition at 0.1 µM
C/C(=N\NC(=N)N)c1c(-c2ccc(Cl)cc2Cl)[nH]c2ccc(Cl)cc12 [Example 127, 2-{[5-Chloro-2-(2,4-dichlorophenyl)-1H-indol-3-yl]ethylidene}hydrazinecarboximidamide] | 50.6%

Same assay, conditions: [3H]-LSD 3.0 nM, Hela cell membranes; read-out: 5-HT6 Binding Ki

pKi | Molecule
7.74 | N=C(N)NN=Cc1c(-c2ccc(Cl)cc2)[nH]c2ccccc12 [Example 44, 2-[2-(4-chlorophenyl)-1H-indol-3-ylmethylene]hydrazinecarboximidamide]
9.00 | CC(=NNC(=N)N)c1cn(C)c2ccc(NS(=O)(=O)c3ccccc3Br)cc12 [Example 25]
8.40 | CC(=NNC(=N)N)c1cn(C)c2ccc(NS(=O)(=O)c3ccc(N)cc3)cc12 [Example 10]
8.70 | C/C(=N\NC(=N)N)c1cn(C)c2ccc(NS(=O)(=O)c3ccccc3)cc12 [Example 8, (Z)-2-{-1-[1-methyl-5-[(phenylsulfonyl)amino]-1H-indol-3-yl]ethylidene}hydrazinecarboximidamide Hydrochloride]

Same assay, conditions: test compound dose 10 nM; displacement of [3H]-LSD

inhibition at 0.01 µM | Molecule
39.5% | N=C(N)NN=C1CCCc2[nH]c3ccccc3c21 [Example 161, 2-(1,2,3,9-tetrahydro-4H-carbazol-4-ylidene)hydrazinecarboximidamide]
38.3% | CC(=NNC(=N)N)c1c(-c2ccc(F)cc2)[nH]c2ccccc12 [Example 74, 2-{1-[2-(4-fluoro-phenyl)-1H-indol-3-yl]-ethylidene}hydrazinecarboximidamide]

Same assay, conditions: test compound dose 100 nM; displacement of [3H]-LSD

Molecule | % Inhibition
2-{[2-(3-thienyl)-1H-indol-3-yl]-ethylidene}hydrazinecarboximidamide [Example 139] | 60.1%

Same assay, conditions: test compound dose 100 nM; displacement of [3H]-LSD; read-out: % Inhibition

inhibition at 0.1 µM | Molecule
25.6% | CC(C)c1ccc2[nH]c3c(c2c1)C(=NN(C)C1=NCCN1)CC(c1ccccc1)C3 (stereo not shown) [Example 178, 6-isopropyl-2-phenyl-1,2,3,9-tetrahydro-4H-carbazol-4-one 4,5-dihydro-1H-imidazol-2-yl-(methyl)hydrazone]
33.9% | CC1(C)CC(=NNC(=N)N)c2c([nH]c3ccc(Br)cc23)C1 [Example 169, 2-(6-bromo-2,2-dimethyl-1,2,3,9-tetrahydro-4H-carbazol-4-ylidene)hydrazinecarboximidamide]
24.2% | Cc1ccc2[nH]c3c(c2c1)C(=NN(C)C1=NCCN1)CCC3 [Example 176, 6-methyl-1,2,3,9-tetrahydro-4H-carbazol-4-one 4,5-dihydro-1H-imidazol-2-yl(methyl)hydrazone]

Same assay, conditions: test compound dose 1000 nM; displacement of [3H]-LSD

inhibition at 1 µM | Molecule | % Inhibition
70.4% | CCCCCNC(=N)NN=Cc1c(-c2ccc(Cl)cc2)[nH]c2ccccc12 [Example 123, 2-{[2-(4-chlorophenyl)-1H-indol-3-yl]methylidene}-N-pentyl-1hydrazinecarboximidamide] | –
96.2% | CN(N=Cc1c(-c2ccccc2)[nH]c2ccccc12)C1=NCCN1 [Example 50, N-(4,5-dihydro-1H-imidazol-2-yl)-N′-(2-phenyl-1H-indol-3-ylmethylene)-N-methylhydrazine] | –
62.7% | Cc1nc(Cn2c(-c3ccc(Cl)cc3)c(C=CNNC3=NCCN3)c3ccccc32)cs1 [Example 102, {[2-(4-chlorophenyl)-1((2-methyl-thiazol-4-yl)methyl)-1H-indol-3-yl]methylene}-N′-(4,5-dihydro-1H-imidazol-2-yl)-N-methylhydrazine] | –
73.2% | CC(=NNC(=N)N)c1c(-c2ccc(F)c(F)c2)[nH]c2ccccc12 [Example 75, 2-{1-[2-(3,4-difluoro-phenyl)-1H-indol-3-yl]-ethylidene}hydrazinecarboximidamide] | –
83.9% | N=C(N)NN=C(Cc1ccccc1)c1c(-c2ccc(F)c(Cl)c2)[nH]c2ccccc12 [Example 61, 2-{1-[2-(3-chloro-4-fluoro-phenyl)-1H-indol-3-yl]-2-phenyl-ethylidene}hydrazinecarboximidamide] | –
78.2% | CC(C)CC(=NNC(=N)N)c1c(-c2ccc(Cl)cc2)[nH]c2ccccc12 [Example 62, 2-{1-[2-(4-chloro-phenyl)-1H-indol-3-yl]-3-methyl-butylidene}hydrazinecarboximidamide] | –
49.5% | N=C(NN=Cc1c(-c2ccc(Cl)cc2)[nH]c2ccccc12)NC1CCCC1 [Example 115, 2-{[2-(4-chlorophenyl)-1H-indol-3-yl]methylidene}-N-cyclopentyl-1hydrazinecarboximidamide] | –
84.1% | N=C(NCCO)NN=Cc1c(-c2ccc(Cl)cc2)[nH]c2ccccc12 [Example 113, 2-{[2-(4-chlorophenyl)-1H-indol-3-yl]methylidene}-N-(2-hydroxyethyl)-1hydrazinecarboximidamide] | –
93.8% | CN(N=Cc1c(-c2ccc(F)c(Cl)c2)[nH]c2ccccc12)C1=NCCN1 [Example 49, N′-[2-(3-chloro-4-fluoro-phenyl)-1H-indol-3-ylmethylene]-N-(4,5-dihydro-1H-imidazol-2-yl)-N-methylhydrazine] | –
27% | N=C(N)NN=C(c1c(-c2ccccc2)[nH]c2ccccc12)C1CCCCC1 [Example 54, 2-[cyclohexyl-(2-phenyl-1H-indol-3-yl)-methylene]hydrazinecarboximidamide] | –
49.5% | N=C(N)NN=C(Cc1ccccc1)c1c(-c2ccc(Cl)cc2)[nH]c2ccccc12 [Example 60, 2-{1-[2-(4-chloro-phenyl)-1H-indol-3-yl]-2-phenyl-ethylidene}hydrazinecarboximidamide] | –
31.6% | CN=C(NCCO)NN=Cc1c(-c2ccc(Cl)cc2)[nH]c2ccccc12 [Example 114, 2-{[2-(4-chlorophenyl)-1H-indol-3-yl]methylidene}-N-(2-hydroxyethyl)-N′-methyl-1hydrazinecarboximidamide] | –
33.7% | N=C(N)NN=C(Cc1ccc(Cl)cc1)c1c(-c2ccc(Cl)cc2)[nH]c2ccccc12 [Example 53, 2-{1-[2-(4-chloro-phenyl)-1H-indol-3-yl]-2-(4-chloro-phenyl)-ethylidene}hydrazinecarboximidamide] | –

Further lines, the molecule ahead of its results:

Molecule | inhibition at 1 µM | % Inhibition
CN(N=Cc1c(-c2ccc(Cl)cc2)n(CCC#N)c2ccccc12)C1=NCCN1 [Example 109, N-{[2-(4-chloro-phenyl)-1-(2-cyano-ethyl)-1H-indol-3-yl]-methylene}-N′-(4,5-dihydro-1H-imidazol-2-yl)-N-methylhydrazine] | – | 99.1%
CN(N=Cc1c(-c2ccc(Cl)cc2)n(Cc2ccccc2Cl)c2ccccc12)C1=NCCN1 [Example 97, N-{[1-(2-chloro-benzyl)-2-(4-chloro-phenyl)-1H-indol-3-yl]-methylene}-N′-(4,5-dihydro-1H-imidazol-2-yl)-N-methylhydrazine] | – | 0.4%
N=C(N)NN=C1CCCc2[nH]c3ccc(F)cc3c21 [Example 156, 2-(6-fluoro-1,2,3,9-tetrahydro-4H-carbazol-4-ylidene)hydrazinecarboximidamide] | 98.8% | –
CC(=NNC(=N)N)c1cn(C)c2ccc(NS(=O)(=O)c3ccccc3Br)cc12 [Example 25] | 99% | –
CN(N=C(C=Cc1ccccc1)c1c(-c2ccccc2)[nH]c2ccccc12)C1=NCCN1 [Example 71, N-(4,5-dihydro-1H-imidazol-2-yl)-N-methyl-N′-[3-phenyl-1-(2-phenyl-1H-indol-3-yl)-allylidene]hydrazine] | 30% | –
2-[3-(2-chloro-phenyl)-1-(1,2-diphenyl-1H-indol-3-yl)-allylidene]hydrazinecarboximidamide [Example 88] | – | 37.5%
CN(N=Cc1c(-c2ccc(Cl)cc2)n(Cc2ccccc2)c2ccccc12)C1=NCCN1 [Example 95, N-{[1-benzyl-2-(4-chloro-phenyl)-1H-indol-3-yl]-methylene}-N′-(4,5-dihydro-1H-imidazol-2-yl)-N-methylhydrazine] | – | 20.0%
N=C(N)NN=Cc1c(-c2ccc(Cl)cc2)n(CCc2ccccc2)c2ccccc12 [Example 110, 2-{[2-(4-chloro-phenyl)-1-(2-phenethyl)-1H-indol-3-yl]-methylene}hydrazinecarboximidamide] | – | 20.9%
CC(=NNC(=N)N)c1cn(C)c2ccc(NS(=O)(=O)c3ccc(N)cc3)cc12 [Example 10] | 98.7% | –
Cn1c(-c2ccccc2)c(C(Cc2ccccc2)=NNC(=N)N)c2ccccc21 [Example 83, 2-[1-(1-methyl-2-phenyl-1H-indol-3-yl)-2-phenyl-ethylidene]hydrazinecarboximidamide] | 31% | –
N=C(N)NN=Cc1c(-c2ccccc2)n(-c2ccccc2)c2ccccc12 [Example 91, 2-[(1,2-diphenyl-1H-indol-3-yl)-methylene]hydrazinecarboximidamide] | 24% | –
CC(=NNC(=N)N)c1c(-c2ccccc2)n(-c2ccccc2)c2ccccc12 [Example 87, 2-[1-(1,2-diphenyl-1H-indol-3-yl)-ethylidene]hydrazinecarboximidamide] | 31.3% | –
CC(C)C(=NNC(=N)N)c1c(-c2ccccc2)n(C)c2ccccc12 [Example 81, 2-[1-(1-methyl-2-phenyl-1H-indol-3-yl)-2-methyl-propylidene]hydrazinecarboximidamide] | 43.2% | –

— patent US6951881B2, “(1-substituted-indol-3-yl) alkylidenehydrazinecarboximidamide derivatives as 5-hydroxytryptamine-6 ligands” (Wyeth, priority 2002, dated 2005)
